Format in all cases: in vivo
Test [1] relates to Nicotiana benthamiana. As to the kind of experiment: Test Example 4: growth promotion under low-temperature stress by hydroponics of Nicotiana benthamiana, 10 ppm. As to conditions: 10 ppm in medium, low-temperature stress 7 days at 1.5±1.0° C., green leaf area 3 days later, equation (1). On the procedure:
Test for Evaluating Growth Promotion Under Low-Temperature Stress by Hydroponics of Nicotiana benthamiana
A DMSO solution, which contained one of the compounds 1, 8, 9, 13, 18, 19, 22, 23, 29, 32, 33, 34, 39, 40, 41, 43, 44, 51, 53, 54, 55, 56, 58, 60, 62, 63, 64, 65, 67, 69, 71, 73, 74, 75, 77, 79, 82, 83 and 86 of the present invention at a concentration of 10,000 ppm, was prepared. The DMSO solution of the compound of the present invention was added at a volume ratio of 1/1,000 to the Murashige•Scoog medium of a ½-fold concentration (a medium containing 2.3 g of mixed salts for the Murashige•Scoog medium (manufactured by Wako Pure Chemical Industries, Ltd.), 200 mg of Myo-inositol (manufactured by Sigma-Aldrich Co. LLC.), 2 mg of nicotinic acid (manufactured by Wako Pure Chemical Industries, Ltd.), 2 mg of pyridoxine hydrochloride (manufactured by Wako Pure Chemical Industries, Ltd.), 20 mg of thiamine hydrochloride (manufactured by Wako Pure Chemical Industries, Ltd.), 20 g of sucrose (manufactured by Wako Pure Chemical Industries, Ltd.), and 1 g of MES (manufactured by DOJINDO LABORATORIES) per 1 L of water and having pH adjusted to 5.8), thereby preparing a medium containing the compound of the present invention at a concentration of 10 ppm.
Seeds of Nicotiana benthamiana were seeded in the 5 μL of the medium and cultured overnight at 22° C. Thereafter, 45 μL of the medium containing the compound of the present invention at a concentration of 10 ppm was added thereto, and the seeds are cultivated for 7 days at 22° C., an illuminance of 4,000 lux, and a day length of 16 hours, and the nursery plants raised from the Nicotiana benthamiana were treated with the compound. Moreover, instead of the above medium, a test plot, which was obtained by performing the same treatment by using a medium prepared by adding DMSO to the Murashige•Scoog medium of ½-fold concentration at a volume ratio of 1/1,000, was used as a control plot not treated with the compound.
The nursery plants of the Nicotiana benthamiana treated with the compound were subjected to low-temperature treatment by being cultivated for 7 days at 1.5±1.0° C., an illuminance of 2,000 lux, and a day length of 16 hours.
The nursery plants of the Nicotiana benthamiana having undergone the low-temperature stress treatment were cultivated for 3 days at 22° C., an illuminance of 4,000 lux, and a day length of 16 hours. Thereafter, the area of green leaf was quantified by Scanalyzer HTS (manufactured by LemnaTec GmbH). Moreover, the value of the control plot not treated with the compound that had not yet been subjected to the low-temperature stress treatment was measured in the same manner. A value of a relative leaf area was calculated based on the following equation (1), and if the value of a relative leaf area was 5 or greater, the compound was evaluated to have a mitigating effect. As a result of the evaluation, it was confirmed that when the plant was treated with one of the compounds 1, 8, 9, 13, 18, 19, 22, 23, 29, 32, 33, 34, 39, 40, 41, 43, 44, 51, 53, 54, 55, 56, 58, 60, 62, 63, 64, 65, 67, 69, 71, 73, 74, 75, 77, 79, 82, 83 and 86 of the present invention at 10 ppm, the value of a relative leaf area was 5 or greater, compared to the area of green leaf of the control plot not treated with compound. Accordingly, it was confirmed that the treatment using the compound of the present invention brings about a growth promotion effect.
Relative leaf area=100*(a green area of a plot treated with the compound of the present invention−a green area of a control plot not treated with the compound of the present invention)/(a green area of a control plot not treated with the compound of the present invention that has not yet been subjected to low-temperature stress treatment−a green area of a control plot not treated with the compound of the present invention) Equation (1): […]

Test [2] has as its system Rice (variety: Nipponbare). As to the kind of experiment: Test Example 1: promotion of root growth by hydroponics of rice, 10 ppm. To be noted: Oryza sativa, hydroponic solution containing the test compound at 10 ppm, average of 4 or 5 individuals, read-out: Relative value of length of seminal root (%-untreated control plot). The gist of the method: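 Surface-sterilised seeds germinated 3 days in the dark at 28° C in hydroponic solution with compound at 10 ppm, then grown 3 days hydroponically with compound at 10 ppm (26° C, 4,000 lux, 16 h day, 50% humidity). Seminal root length measured by image analysis, averaged over 4 or 5 plants per plot.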

Test [3] deals with Corn seeds (variety: Pioneer 120 31P41). As to the kind of experiment: Test Example 14: growth promotion under low-temperature stress by soil drench treatment of corn. As to conditions: soil drench 20 ml, low-temperature stress 5 days at 2.5° C., health score 0-5, average of 4 individuals; for change in vivo at 3 ppm: concentration tested 3 ppm. On the procedure: Test for Evaluating Growth Promotion Under Low-Temperature Stress by Soil Drench Treatment of Corn
Corn seeds (variety: Pioneer 120 31P41) were seeded in a culture soil (Aisai) in a plastic pot (φ55 mm×height of 58 mm), and cultivated for 7 days at 20-25° C., an illuminance of about 5,000 lux, and a day length of 16 hours.
A DMSO solution, which contained one of the compounds 1 to 9, 16, 17, 20, 23, 24, 28 to 32, 34, 45, 48, 50, 82 and 85 of the present invention at a concentration of 1,000-fold concentration of each test concentration, was prepared, and then diluted with distilled water to obtain each test solution. After that, 20 ml of the obtained test solution was used to perform soil drench treatment on the foot of the test plants. The test plants were cultivated for 2 days under the conditions of a temperature of 27° C., a humidity of 40-80%, an illuminance of about 5,000 lux, and a day length of 16 hours. This was used as a test plot treated with the compound. A plot having undergone the soil drench treatment with 20 ml of a 0.1% DMSO aqueous solution instead of the above DMSO solution containing the compound was used as an untreated control plot.
The plants having undergone the soil drench treatment were cultivated for 5 days under the conditions of a temperature of 2.5° C., a humidity of 40-80%, an illuminance of about 5,000 lux, and a day length of 16 hours, thereby exposing to low-temperature stress. After the exposure to the low-temperature stress, the plants were cultivated for 4 days under the conditions of a temperature of 27° C., a humidity of 40-80%, an illuminance of about 5,000 lux, and a day length of 16 hours.
After the cultivation, the health of each plant was scored according to the following evaluation index.
5: 4 or more leaves in which ⅔ or more of the area was healthy
4: 3 leaves in which ⅔ or more of the area was healthy
3: 2 leaves in which ⅔ or more of the area was healthy
2: 1 leaf in which ⅔ or more of the area was healthy
1: No leaf in which ⅔ or more of the area was healthy
An average of the scores of the health of 4 individuals was determined.

The test system of test [4] is Rice (variety: Nipponbare). The test can be described thus: Test Example 3: promotion of root growth by hydroponics of rice, 0.1 ppm. As to conditions: hydroponic solution containing the test compound at 0.1 ppm, average of 4 or 5 individuals. The procedure:
(§1) Test for Evaluating Promotion of Root Growth by Hydroponics of Rice
(§2) Rice (variety: Nipponbare)
A DMSO solution, which contained one of the compounds 2, 6, 7, 16, 20, 33, 34, 36, 37, 38, 40, 41, 43, 44, 45, 46, 47, 48, 50, 51, 52, 53, 54, 55, 56, 61, 64, 67, 68, 71, 72, 73, 74, 75, 76, 79, 80, 81 and 83 of the present invention at a concentration of 1,000 ppm, was added to Hoagland hydroponic solution (Hoagland and Arnon, California Agricultural Experiment Station 1950 Circular 347 pp. 34) of ¼-fold concentration at a volume ratio of 1/10,000. In this manner, hydroponic solutions containing one of the compounds 2, 6, 7, 16, 20, 33, 34, 36, 37, 38, 40, 41, 43, 44, 45, 46, 47, 48, 50, 51, 52, 53, 54, 55, 56, 61, 64, 67, 68, 71, 72, 73, 74, 75, 76, 79, 80, 81 and 83 of the present invention at 0.1 ppm were prepared respectively. As an untreated control plot, a hydroponic solution obtained by adding DMSO to Hoagland hydroponic solution of ¼-fold concentration at a volume ratio of 1/10,000 was used.
Rice seeds were soaked in a 1% aqueous sodium hypochlorite solution for 10 minutes, then soaked in a 70% ethanol solution for surface sterilization, and then washed with distilled water. The sterilized seeds were soaked in a hydroponic solution containing the test compound described above at 0.1 ppm and incubated in a dark place for 3 days at 28° C. to perform treatment for hastening germination.
Thereafter, 30 ml of hydroponic solution containing the test compound at 0.1 ppm was dispensed in a plastic tube (diameter of 20 mm×height of 113 mm) of which the side was covered with cardboard to block light. A float prepared using a styrene board and vinyl mesh was floated, and the rice seeds that had undergone the treatment for hastening germination were placed on the float on the surface of the hydroponic solution. The seeds were cultivated for 3 days at 26° C., an illuminance of 4,000 lux of the top surface of the tube, a humidity of 50%, and a day length of 16 hours.
The nursery plants of rice obtained after culturing were measured in terms of the length of seminal root by using WinRHIZO system (manufactured by Regent Instruments Inc). For each test plot, an average of the measured values of the seminal root of 4 or 5 individuals was determined.

The subject of test [5] is Rice (variety: Nipponbare). As to the kind of experiment: Test Example 2: promotion of root growth by hydroponics of rice, 1 ppm. As to conditions: hydroponic solution containing the test compound at 1 ppm, average of 4 or 5 individuals. On the procedure: as §1, §2
A DMSO solution, which contained one of the compounds 1, 3, 11, 12, 14, 15, 17, 21, 28, 30, 33, 34, 35, 36, 37, 38, 40, 41, 43, 44, 45, 46, 47, 49, 50, 51, 52, 53, 54, 55, 56, 61, 62, 63, 65, 67, 68, 69, 70, 73, 74, 75, 76, 77, 80, 82, 83, 85 and 86 of the present invention at a concentration of 10,000 ppm, was added to Hoagland hydroponic solution (Hoagland and Arnon, California Agricultural Experiment Station 1950 Circular 347 pp. 34) of ¼-fold concentration at a volume ratio of 1/10,000. In this manner, hydroponic solutions containing one of the compounds 1, 3, 11, 12, 14, 15, 17, 21, 28, 30, 33, 34, 35, 36, 37, 38, 40, 41, 43, 44, 45, 46, 47, 49, 50, 51, 52, 53, 54, 55, 56, 61, 62, 63, 65, 67, 68, 69, 70, 73, 74, 75, 76, 77, 80, 82, 83, 85 and 86 of the present invention at 1 ppm were prepared respectively. As an untreated control plot, a hydroponic solution obtained by adding DMSO to Hoagland hydroponic solution of ¼-fold concentration at a volume ratio of 1/10,000 was used. Rice seeds were soaked in a 1% aqueous sodium hypochlorite solution for 10 minutes, then soaked in a 70% ethanol solution for surface sterilization, and then washed with distilled water. The sterilized seeds were soaked in a hydroponic solution containing the test compound described above at 1 ppm and incubated in a dark place for 3 days at 28° C. to perform treatment for hastening germination.
Thereafter, 30 ml of hydroponic solution containing the test compound at 1 ppm was dispensed in a plastic tube (diameter of 20 mm×height of 113 mm) of which the side was covered with cardboard to block light. A float prepared using a styrene board and vinyl mesh was floated, and the rice seeds that had undergone the treatment for hastening germination were placed on the float on the surface of the hydroponic solution. The seeds were cultivated for 3 days at 26° C., an illuminance of 4,000 lux of the top surface of the tube, a humidity of 50%, and a day length of 16 hours.
The nursery plants of rice obtained after cultivation were measured in terms of the length of seminal root by using WinRHIZO system (manufactured by Regent Instruments Inc). For each test plot, an average of the measured values of the seminal root of 4 or 5 individuals was determined.

Setting [6] is: Zea mays, 120 h, read-out: Relative value of score (%- untreated control plot).

The source of these data is patent US20150289512A1, “METHOD FOR PROMOTING PLANT GROWTH” (SUMITOMO CHEMICAL COMPANY, LIMITED, priority 2012, published 2015).

In test [1], `COC(=O)c1cc2cc(C(F)(F)F)ccc2[nH]1` [Compound 8, methyl 5-trifluoromethylindole-2-carboxylate] returned a relative leaf area at 10 ppm of at least 5%. Further, the change in vivo at 10 ppm in test [2] is over 5%. For the same compound, the change in vivo at 3 ppm in test [3] (setting [6]) is over 5%.
As to `COC(=O)c1cc2c(C(F)(F)F)cccc2[nH]1` [Compound 6], the “Relative value of length of seminal root (%-untreated control plot)” value (“Relative value … (%-untreated control plot)” below) in test [4] is reported as over 5%. Moreover, the “Relative value of score (%- untreated control plot)” value in test [3] (concentration tested 10 ppm) is over 5%.
Take `O=C(O)c1nc2cccnc2[nH]1` [Compound 28]: the “Relative value … (%-untreated control plot)” value in test [5] is listed as over 5%. Also, in test [3] (concentration tested 10 ppm), the “Relative value of score (%- untreated control plot)” value is listed as over 5%.
For `COC(=O)c1nc2ccccc2s1` [Compound 30], in test [5], the “Relative value … (%-untreated control plot)” value was over 5%. In addition, the “Relative value of score (%- untreated control plot)” value in test [3] (concentration tested 10 ppm) is over 5%.
On to `COC(=O)c1cc2ccc(C(F)(F)F)cc2o1` [Compound 48], for which, in test [4] (Oryza sativa, read-out: Relative value of length of seminal root (%-untreated control plot)), the change in vivo at 0.1 ppm was over 5%. For the same compound, the change in vivo at 10 ppm in test [3] (Zea mays, 120 h, concentration tested 10 ppm, read-out: Relative value of score (%- untreated control plot)) was over 5%.
With `COC(=O)c1nc2cc(C(F)(F)F)ccc2s1` [Compound 29, methyl 5-trifluoromethylbenzothiazole-2-carboxylate], the relative leaf area at 10 ppm in test [1] is at least 5%. Besides, in test [2], the change in vivo at 10 ppm is over 5%. In addition, the change in vivo at 3 ppm in test [3] (setting [6]) was over 5%.
